# Measurements published in patent US7160875B2, “Malonamide derivatives” (priority 2003, dated 2007).
# Target: γ-secretase (Homo sapiens, UniProt P49768)
# Assay: in vitro γ-secretase assay (HEK293 membrane fraction, recombinant APP substrate, Abeta ELISA)
# Type: biochemical
# Details: γ-secretase inhibition; HEK293 membrane fraction solubilized in 0.25% CHAPSO, C-terminal 100 amino acids of human APP as substrate, Abeta detected by ELISA
# From the text: The activity of test compounds can be evaluated in assays which measure the proteolytic cleavage of suitable substrates by γ-secretase activity. These can be cellular assays where e.g., a substrate of the γ-secretase is fused in its cytoplasmic domain to a transcription factor. Cells are transfected with this fusion gene and a reporter gene, e.g., firefly luciferase, which expression is enhanced by the transcription factor. Cleavage of the fused substrate by γ-secretase will lead to expression of the reporter gene which can be monitored in appropriate assays. The γ-secretase activity can also be determined in cell-free in vitro […] containing the γ-secretase complex is incubated with a suitable APP-derived substrate which is cleaved to the Abeta peptides. The amount of produced peptides can be determined with specific ELISA assays. Cell lines of neuronal origin secrete Abeta peptides which can be measured with the specific ELISA assay. Treatment with compounds which inhibit γ-secretase leads to a reduction of secreted Abeta thus providing a measure of inhibition. The in vitro assay of γ-secretase activity uses a HEK293 membrane fraction as a source of γ-secretase and a recombinant APP substrate. The latter consist of the C-terminal 100 amino acids of human APP fused to a 6× Histidin tail for purification which is expressed in E. coli in a regulatable expression vector, e.g. pEt15. This recombinant protein corresponds to the truncated APP fragment which results after […] of the extracellular domain and which constitutes the γ-secretase substrate. The assay principle is described in Li Y M et al, PNAS 97(11), 6138-6143 (2000). Hek293 cells are mechanically disrupted, and the microsomal fraction is isolated by differential centrifugation. The membranes are solubilized in detergent (0.25% CHAPSO) and incubated with the APP substrate. The Abeta peptides which are produced by γ-secretase cleavage of the substrate are detected by specific ELISA assays as described (Brockhaus M et al, Neuroreport 9(7), 1481-1486 (1998).
row,IC50 [nM],Compound
1,48,"CC(C(=O)NCC(F)(F)C(F)(F)F)C(=O)N[C@H]1CN(C(=O)OCC2CC2)c2ccccc2N(CC(F)(F)F)C1=O (mixture of isomers) [Example 109, 4-Oxo-(3S)-[(2RS)-(2,2,3,3,3-pentafluoro-propylcarbamoyl)-propionylamino]-5-(2,2,2-trifluoro-ethyl)-2,3,4,5-tetrahydro-benzo[b][1,4]diazepine-1-carboxylic Acid Cyclopropylmethyl Ester]"
2,90,"5-Methyl-4-oxo-(3S)-[(2RS)-(2,2,3,3,3-pentafluoro-propylcarbamoyl)-propionylamino]-2,3,4,5-tetrahydro-benzo[b][1,4]diazepine-1-carboxylic acid cyclopropylmethyl estermalonamide [Example 106]"
3,71,"CC(C(=O)NCC(F)(F)C(F)(F)F)C(=O)N[C@H]1CN(S(=O)(=O)C(F)(F)F)c2ccccc2N(C)C1=O (mixture of isomers) [Example 95, (2RS)-Methyl-N-((3S)-1-methyl-2-oxo-5-trifluorromethanesulfonyl-2,3,4,5-tetrahydro-1H-benzo[b][1,4]diazepin-3-yl)-N′-(2,2,3,3,3-pentafluoro-propyl)-malonamide]"
4,4,"CC(C)(C(=O)NCC(F)(F)C(F)(F)F)C(=O)N[C@@H]1C(=O)Nc2ccccc2-c2ccccc21 [Example 67, 2,2-Dimethyl-N-((S)-6-oxo-6,7-dihydro-5H-dibenzo[b,d]azepin-7-yl)-N′-(2,2,3,3,3-pentafluoro-propyl)-malonamide]"
